Six molecules from patent US20240391965A1, “STAPLED ANTIMICROBIAL PEPTIDES (STAMPS) AND USES THEREOF” (Lytica Therapeutics, Inc., priority 2021, published 2024) can be followed below.

The subject of data set [1] is Acinetobacter baumannii (A. baumannii). Type of data set: cell-based. To be noted: microbroth dilution, 20-24 hours at 37° C. The procedure:
(§1) Antimicrobial Activity Assay: The following microbroth dilution protocol was adapted from CLSI to determine the minimum inhibitory concentration (MIC) of StAMPs. Briefly, Mueller-Hinton broth (MHB) or cation-adjusted Mueller-Hinton broth (MHB II) was prepared and autoclaved. Then, a colony of bacterial cells was picked and grown overnight in broth at 37° C. and then diluted and allowed to grow again for 3-4 hours. Serial dilutions of peptide stocks in water (10 μl) were prepared using clear round-bottom polypropylene 96-well plates. Then 90 μl of bacteria in broth was added to give a final inoculum of 5×10^5 CFU/ml. The plates were then covered with porous tape to reduce evaporation and incubated for 20-24 hours at 37° C. The MIC was the minimum peptide concentration at which no visible bacterial growth was observed.
On the technique in general: Dilution methods test growth across graded concentrations, often in twofold steps.

Data set [2] relates to Escherichia coli (E. coli). Type of data set: cell-based. The settings on record: microbroth dilution, 20-24 hours at 37° C. On the procedure: as §1
Data set [3] deals with Klebsiella pneumoniae (K. pneumoniae). It is filed as cell-based. To be noted: microbroth dilution, 20-24 hours at 37° C. On the procedure:
as §1

In data set [4] the test system is Pseudomonas aeruginosa (P. aeruginosa). Type of data set: cell-based. To be noted: microbroth dilution, 20-24 hours at 37° C. On the procedure: as §1
Data set [5] deals with Staphylococcus aureus (S. aureus). Type of data set: cell-based. To be noted: microbroth dilution, 20-24 hours at 37° C. The procedure:
as §1

Data set [6] in a line: 90 minute cytotoxicity assay (LDH release), renal toxicity. It is filed as cell-based. To be noted: 90 minutes of incubation, LDH release; read-out: Inhibitory Concentration at 50% Cytotoxicity (IC50) Human Renal Proximal Tubule Epithelial Cells (RPTEC). An outline of the steps: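 Released lactate dehydrogenase, read as absorbance at 490 nm after 10 min with assay reagent, serves as read-out. Renal proximal tubule epithelial cells received peptide serial dilutions or vehicle for 90 min at 37° C after overnight plating.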

The nature of data set [7]: 48 hours cytotoxicity assay (CellTiter-Glo), liver toxicity. The settings on record: 48 hours of incubation, CellTiter-Glo; read-out: Inhibitory Concentration at 50% Cytotoxicity (IC50) Human Liver Cells (HepG2). It is filed as cell-based, human. An outline of the steps:
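Viability from CellTiter-Glo luminescence after StAMP dilution series or vehicle acted on HepG2 cells for 48 h at 37 °C. Cells were grown in EMEM plus 10% FBS and given 4 h to attach before dosing.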
Background: In ATP-based viability assays light output follows the ATP content of the culture.

≈ marks a conversion by molar mass, not a printed value. Starred links: 1 amine or outer side, 2 acyl side, 3 side chain; linkers in the order of their positions; H or OH if unused. Positions of bridges follow the written chain, without caps; N, C: chain ends. Residues, ends and D or L forms follow the SMILES beside them. 2,2'Bipyridine(5,5'-diCH2) = c1cc(-c2ccc(C[*:2])cn2)ncc1C[*:1]; Naphthalene(2,6-diCH2) = c1cc2cc(C[*:2])ccc2cc1C[*:1]; X1 = C(=CC[*:2])C[*:1]

Regarding `CC[C@H](C)[C@H](NC(=O)CN)C(=O)N[C@@H](Cc1ccccc1)C(=O)N[C@@H](CO)C(=O)N[C@@H](CCCCN)C(=O)N[C@@H](CC(C)C)C(=O)N[C@@H](C)C(=O)NCC(=O)N[C@@H](CCCCN)C(=O)N[C@H]1CSCc2ccc(nc2)-c2ccc(cn2)CSC[C@@H](C(=O)NCC(=O)N[C@@H](CC(C)C)C(=O)N[C@@H](CCCCN)C(=O)NCC(N)=O)NC(=O)[C@H]([C@@H](C)CC)NC(=O)[C@H](CC(C)C)NC(=O)[C@H](CC(C)C)NC(=O)[C@H](CC(N)=O)NC(=O)[C@H](CCCCN)NC(=O)[C@H]([C@@H](C)CC)NC1=O` [compound 72] (H-GIFSKLAGKCIKNLLICGLKG-NH2; linker 10-17 via 2,2'Bipyridine(5,5'-diCH2); N-terminus assumed), the “Minimum Inhibitory Concentration (MIC) A. baumannii” value in data set [1] is 4 µg/mL. Also, the “Minimum Inhibitory Concentration (MIC) E. coli” value in data set [2] worked out at 4 µg/mL. In addition, the “Minimum Inhibitory Concentration (MIC) K. pneumoniae” value in data set [3] stood at 8 µg/mL. Also, the “Minimum Inhibitory Concentration (MIC) P. aeruginosa” value in data set [4] was found to be 32 µg/mL. Besides, in data set [5], the “Minimum Inhibitory Concentration (MIC) S. aureus” value worked out at 4 µg/mL. Further, the IC50 in data set [6] worked out at 19 µg/mL (≈ 8.06 µM).
For the molecule `CC[C@H](C)[C@H](NC(=O)CN)C(=O)N[C@@H](Cc1ccccc1)C(=O)N[C@@H](CO)C(=O)N[C@@H](CCCCN)C(=O)N[C@@H](CC(C)C)C(=O)N[C@@H](C)C(=O)NCC(=O)N[C@@H](CCCCN)C(=O)N[C@H]1CSCc2ccc3cc(ccc3c2)CSC[C@@H](C(=O)NCC(=O)N[C@@H](CC(C)C)C(=O)N[C@@H](CCCCN)C(=O)NCC(N)=O)NC(=O)[C@H]([C@@H](C)CC)NC(=O)[C@H](CC(C)C)NC(=O)[C@H](CC(C)C)NC(=O)[C@H](CC(N)=O)NC(=O)[C@H](CCCCN)NC(=O)[C@H]([C@@H](C)CC)NC1=O` [compound 73] (H-GIFSKLAGKCIKNLLICGLKG-NH2; linker 10-17 via Naphthalene(2,6-diCH2); N-terminus assumed), in data set [1], the “Minimum Inhibitory Concentration (MIC) A. baumannii” value was 4 µg/mL. The “Minimum Inhibitory Concentration (MIC) E. coli” value in data set [2] was 8 µg/mL. Besides, the “Minimum Inhibitory Concentration (MIC) K. pneumoniae” value in data set [3] was found to be 8 µg/mL. In addition, in data set [4], the “Minimum Inhibitory Concentration (MIC) P. aeruginosa” value was found to be 64 µg/mL. For the same molecule, the “Minimum Inhibitory Concentration (MIC) S. aureus” value in data set [5] amounted to 4 µg/mL. Further, the IC50 in data set [6] was 9 µg/mL (≈ 3.87 µM).
On to `CC[C@H](C)[C@H](NC(=O)CN)C(=O)N[C@@H](Cc1ccccc1)C(=O)N[C@@H](CO)C(=O)N[C@@H](CCCCN)C(=O)N[C@@H](CC(C)C)C(=O)N[C@@H](C)C(=O)NCC(=O)N[C@@H](CCCCN)C(=O)N[C@@H](CCCCN)C(=O)N[C@H](C(=O)N[C@@H](CCCCN)C(=O)N[C@H]1CSCc2ccc3cc(ccc3c2)CSC[C@@H](C(=O)NCC(N)=O)NC(=O)[C@H](CC(C)C)NC(=O)CNC(=O)[C@H](CO)NC(=O)[C@H]([C@@H](C)CC)NC(=O)[C@H](CC(C)C)NC(=O)[C@H](CC(C)C)NC1=O)[C@@H](C)CC` [compound 82] (H-GIFSKLAGKKIKCLLISGLCG-NH2; linker 13-20 via Naphthalene(2,6-diCH2); N-terminus assumed), for which the “Minimum Inhibitory Concentration (MIC) A. baumannii” value in data set [1] came out at 4 µg/mL. Also, the “Minimum Inhibitory Concentration (MIC) E. coli” value in data set [2] was 4 µg/mL. The “Minimum Inhibitory Concentration (MIC) K. pneumoniae” value in data set [3] was 8 µg/mL. In addition, in data set [4], the “Minimum Inhibitory Concentration (MIC) P. aeruginosa” value came to 32 µg/mL. For the same molecule, the “Minimum Inhibitory Concentration (MIC) S. aureus” value in data set [5] is >64 µg/mL. In addition, the IC50 in data set [7] came out at 23 µg/mL (≈ 10 µM).
For `CC[C@H](C)[C@H](NC(=O)CN)C(=O)N[C@@H](Cc1ccccc1)C(=O)N[C@@H](CO)C(=O)N[C@@H](CCCCN)C(=O)N[C@@H](CC(C)C)C(=O)N[C@@H](C)C(=O)NCC(=O)N[C@@H](CCCCN)C(=O)N[C@@H](CCCCN)C(=O)N[C@H](C(=O)N[C@@H](CCCCN)C(=O)N[C@@H](CC(N)=O)C(=O)N[C@H]1CSCc2ccc(nc2)-c2ccc(cn2)CSC[C@@H](C(N)=O)NC(=O)[C@H](CCCCN)NC(=O)[C@H](CC(C)C)NC(=O)CNC(=O)[C@H](CO)NC(=O)[C@H]([C@@H](C)CC)NC(=O)[C@H](CC(C)C)NC1=O)[C@@H](C)CC` [compound 84] (H-GIFSKLAGKKIKNCLISGLKC-NH2; linker 14-21 via 2,2'Bipyridine(5,5'-diCH2); N-terminus assumed), the “Minimum Inhibitory Concentration (MIC) A. baumannii” value in data set [1] is 8 µg/mL. For the same molecule, the “Minimum Inhibitory Concentration (MIC) E. coli” value in data set [2] stood at 4 µg/mL. The “Minimum Inhibitory Concentration (MIC) K. pneumoniae” value in data set [3] was found to be 16 µg/mL. Further, the “Minimum Inhibitory Concentration (MIC) P. aeruginosa” value in data set [4] was 32 µg/mL. Moreover, the “Minimum Inhibitory Concentration (MIC) S. aureus” value in data set [5] is >64 µg/mL. In addition, the IC50 in data set [7] came to 105 µg/mL (≈ 43.7 µM).
Regarding `CC[C@H](C)[C@H](NC(=O)CN)C(=O)N[C@@H](Cc1ccccc1)C(=O)N[C@@H](CO)C(=O)N[C@@H](CCCCN)C(=O)N[C@@H](CC(C)C)C(=O)N[C@@H](C)C(=O)NCC(=O)N[C@@H](CCCCN)C(=O)N[C@@H](CCCCN)C(=O)N[C@H](C(=O)N[C@@H](CCCCN)C(=O)N[C@@H](CC(N)=O)C(=O)N[C@H]1CSCc2ccc3cc(ccc3c2)CSC[C@@H](C(N)=O)NC(=O)[C@H](CCCCN)NC(=O)[C@H](CC(C)C)NC(=O)CNC(=O)[C@H](CO)NC(=O)[C@H]([C@@H](C)CC)NC(=O)[C@H](CC(C)C)NC1=O)[C@@H](C)CC` [compound 85] (H-GIFSKLAGKKIKNCLISGLKC-NH2; linker 14-21 via Naphthalene(2,6-diCH2); N-terminus assumed), in data set [1], the “Minimum Inhibitory Concentration (MIC) A. baumannii” value worked out at 4 µg/mL. Also, the “Minimum Inhibitory Concentration (MIC) E. coli” value in data set [2] was 4 µg/mL. Also, the “Minimum Inhibitory Concentration (MIC) K. pneumoniae” value in data set [3] was 32 µg/mL. Also, the “Minimum Inhibitory Concentration (MIC) P. aeruginosa” value in data set [4] amounted to 16 µg/mL. Further, the “Minimum Inhibitory Concentration (MIC) S. aureus” value in data set [5] is 64 µg/mL. Further, the IC50 in data set [7] was found to be 87 µg/mL (≈ 36.7 µM).
`CC[C@H](C)[C@H](NC(=O)CN)C(=O)N[C@@H](Cc1ccccc1)C(=O)N[C@@H](CO)C(=O)N[C@@H](CCCCN)C(=O)N[C@@H](CC(C)C)C(=O)N[C@H]1CSCC=CCSC[C@@H](C(=O)N[C@@H](CCCCN)C(=O)N[C@@H](CC(N)=O)C(=O)N[C@@H](CC(C)C)C(=O)N[C@@H](CC(C)C)C(=O)N[C@H](C(=O)N[C@@H](CO)C(=O)NCC(=O)N[C@@H](CC(C)C)C(=O)N[C@@H](CCCCN)C(=O)NCC(=O)N[C@@H](C)C(=O)N[C@@H](CCCCN)C(=O)O)[C@@H](C)CC)NC(=O)[C@H](CCCCN)NC(=O)[C@H](CCCCN)NC(=O)CNC1=O` [compound 100] (H-GIFSKLCGKKCKNLLISGLKGAK-OH; linker 7-11 via X1): in data set [1], the “Minimum Inhibitory Concentration (MIC) A. baumannii” value came out at 16 µg/mL. Further, the “Minimum Inhibitory Concentration (MIC) E. coli” value in data set [2] stood at 32 µg/mL. Besides, the “Minimum Inhibitory Concentration (MIC) K. pneumoniae” value in data set [3] is >64 µg/mL. For the same molecule, in data set [4], the “Minimum Inhibitory Concentration (MIC) P. aeruginosa” value was >64 µg/mL. Besides, the “Minimum Inhibitory Concentration (MIC) S. aureus” value in data set [5] was >64 µg/mL. Further, the IC50 in data set [7] is > 200 µg/mL.
